Results published in patent publication US12492181B2, “Gem-disubstituted piperidine melanocortin subtype-2 receptor (MC2R) antagonists and uses thereof” (Crinetics Pharmaceuticals, Inc., priority 2019, dated 2025).

Biological target: T1, hMC2 receptor (crude hMC2R membranes from CRE-bla-CHO-K1 cells stably expressing hMC2 receptor and hMRAP accessory protein) (Homo sapiens, UniProt Q01718)
T1 construct: crude membrane fractions
Assay: hMC2 membrane binding assay ([125I]ACTH (1-39) Tyr23, SPA)
Conditions: displacement of 0.2 nM [125I]ACTH (1-39) Tyr23 from hMC2R membranes, 1.5 hours at room temperature; read-out: MC2R binding potency
Method in brief: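 Ki values come from non-linear regression of SPA scintillation counts, with compounds displacing [125I]ACTH(1-39) Tyr23. Membranes come from CRE-bla-CHO-K1 cells stably expressing hMC2 receptor together with hMRAP. They are preincubated with WGA-coated PVT SPA beads in 50 mM HEPES pH 7.4 with 0.20% BSA, Mg2+, Ca2+ and protease inhibitors.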

T1 sequence (Q01718 whole entry): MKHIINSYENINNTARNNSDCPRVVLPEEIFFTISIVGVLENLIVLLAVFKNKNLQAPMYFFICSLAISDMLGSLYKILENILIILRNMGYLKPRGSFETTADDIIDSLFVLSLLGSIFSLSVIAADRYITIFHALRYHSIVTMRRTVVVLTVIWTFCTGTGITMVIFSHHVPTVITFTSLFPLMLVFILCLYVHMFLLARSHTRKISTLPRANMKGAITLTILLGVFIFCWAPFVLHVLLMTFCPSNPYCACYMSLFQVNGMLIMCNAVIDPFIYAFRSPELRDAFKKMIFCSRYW
T1 sequence (Q8TCY5 whole entry partner): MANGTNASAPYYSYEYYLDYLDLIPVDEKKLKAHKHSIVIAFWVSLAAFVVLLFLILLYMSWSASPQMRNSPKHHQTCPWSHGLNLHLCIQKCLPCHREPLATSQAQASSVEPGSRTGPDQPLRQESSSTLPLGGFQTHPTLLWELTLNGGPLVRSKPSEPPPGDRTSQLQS

| SMILES | Ki |
| --- | --- |
| COc1cccnc1-c1ccc(C2(C(=O)N[C@H]3CCN(C)C3)CCN(c3ccc(C(F)(F)F)cc3C#N)CC2)cn1 [Compound 1-178, 1-[2-cyano-4-(trifluoromethyl)phenyl]-4-{3′-methoxy-[2,2′-bipyridin]-5-yl}-N-[(3S)-1-methylpyrrolidin-3-yl]piperidine-4-carboxamide] | 10 to 100 nM |
| Cc1ncncc1-c1ccc(C2(C(=O)N[C@@H]3CCN(C)C3)CCN(c3ccc(C(F)(F)F)cc3C#N)CC2)cn1 [Compound 1-105, 1-[2-cyano-4-(trifluoromethyl)phenyl]-4-[6-(4-methylpyrimidin-5-yl)pyridin-3-yl]-N-[(3R)-1-methylpyrrolidin-3-yl]piperidine-4-carboxamide] | 10 to 100 nM |
| CCOc1ncccc1-c1ccc(C2(NC(=O)O[C@H]3CCN(C)C3)CCN(c3ccc(C(F)(F)F)cc3C#N)CC2)cc1 [Compound 2-13, (3S)-1-methylpyrrolidin-3-yl N-{1-[2-cyano-4-(trifluoromethyl)phenyl]-4-[4-(2-ethoxypyridin-3-yl)phenyl]piperidin-4-yl}carbamate] | 10 to 100 nM |
| CN1CC[C@@H](NC(=O)C2(c3ccc(-c4cc5ccccc5n4C)nc3)CCN(c3ccc(C(F)(F)F)cc3C#N)CC2)C1 [Compound 1-191, 1-[2-cyano-4-(trifluoromethyl)phenyl]-4-[6-(1-methyl-1H-indol-2-yl)pyridin-3-yl]-N-[(3R)-1-methylpyrrolidin-3-yl]piperidine-4-carboxamide] | 10 to 100 nM |
| C[C@H](CN(C)C)NC(=O)C1(c2ccc(-c3cccn3C)nc2)CCN(c2ccc(C(F)(F)F)cc2C#N)CC1 [Compound 1-260, 1-[2-cyano-4-(trifluoromethyl)phenyl]-N-[(2R)-1-(dimethylamino)propan-2-yl]-4-[6-(1-methyl-1H-pyrrol-2-yl)pyridin-3-yl]piperidine-4-carboxamide] | < 10 nM |
| CNCCCNC(=O)C1(c2ccc(-c3cccn3C)nc2)CCN(c2ccc(C(F)(F)F)cc2C#N)CC1 [Compound 1-206, 1-[2-cyano-4-(trifluoromethyl)phenyl]-4-[6-(1-methyl-1H-pyrrol-2-yl)pyridin-3-yl]-N-[3-(methylamino)propyl]piperidine-4-carboxamide] | 10 to 100 nM |
| CCOc1ncccc1-c1ncc(C2(C(=O)NCCNC)CCN(c3ccc(C(F)(F)F)cc3Cl)CC2)cc1F [Compound 1-299, 1-[2-chloro-4-(trifluoromethyl)phenyl]-4-{2′-ethoxy-3-fluoro-[2,3′-bipyridin]-5-yl}-N-[2-(methylamino)ethyl]piperidine-4-carboxamide] | < 10 nM |
| CNCCNC(=O)C1(c2ccc(-c3cccn3C)nc2)CCN(c2ccc(C(F)(F)F)cc2C#N)CC1 [Compound 1-215, 1-[2-cyano-4-(trifluoromethyl)phenyl]-4-[6-(1-methyl-1H-pyrrol-2-yl)pyridin-3-yl]-N-[2-(methylamino)ethyl]piperidine-4-carboxamide] | < 10 nM |
| CCOc1ncccc1-c1ccc(C2(NCCO)CCN(c3ccc(C(F)(F)F)cc3C#N)CC2)cn1 [Compound 2-14, 2-(4-{2′-ethoxy-[2,3′-bipyridin]-5-yl}-4-[(2-hydroxyethyl)amino]piperidin-1-yl)-5-(trifluoromethyl)benzonitrile] | 10 to 100 nM |
| COc1ncccc1-c1ccc(C2(C(=O)NCCN(C)C)CCN(c3ccc(C(F)(F)F)cc3F)CC2)cn1 [Compound 1-271, N-[2-(dimethylamino)ethyl]-1-[2-fluoro-4-(trifluoromethyl)phenyl]-4-{2′-methoxy-[2,3′-bipyridin]-5-yl}piperidine-4-carboxamide] | < 10 nM |
| COc1ccc(F)cc1-c1ccc(C2(C(=O)N[C@H]3CCN(C)C3)CCN(c3ccc(C(F)(F)F)cc3Cl)CC2)cn1 [Compound 1-155, 1-[2-chloro-4-(trifluoromethyl)phenyl]-4-[6-(5-fluoro-2-methoxyphenyl)pyridin-3-yl]-N-[(3S)-1-methylpyrrolidin-3-yl]piperidine-4-carboxamide] | < 10 nM |

Further lines, results first:

| Ki | SMILES |
| --- | --- |
| < 10 nM | CC(=O)c1sccc1-c1ccc(C2(C(=O)N[C@H]3CCN(C)C3)CCN(c3ccc(C(F)(F)F)cc3C#N)CC2)cn1 [Compound 1-146, 4-[6-(2-acetylthiophen-3-yl)pyridin-3-yl]-1-[2-cyano-4-(trifluoromethyl)phenyl]-N-[(3S)-1-methylpyrrolidin-3-yl]piperidine-4-carboxamide] |
| < 10 nM | CCOc1ncccc1-c1ncc(C2(C(=O)N[C@H]3CCN(C)C3)CCN(c3ccc(C(F)(F)F)nc3C#N)CC2)cc1F [Compound 1-110, 1-[2-cyano-6-(trifluoromethyl)pyridin-3-yl]-4-{2′-ethoxy-3-fluoro-[2,3′-bipyridin]-5-yl}-N-[(3S)-1-methylpyrrolidin-3-yl]piperidine-4-carboxamide] |
| < 10 nM | COc1ncccc1-c1ccc(C2(C(=O)N[C@@H]3CCN(C)C3)CCN(c3ccc(C(F)(F)F)cc3C#N)CC2)cn1 [Compound 1-98, 1-[2-cyano-4-(trifluoromethyl)phenyl]-4-{2′-methoxy-[2,3′-bipyridin]-5-yl}-N-[(3R)-1-methylpyrrolidin-3-yl]piperidine-4-carboxamide] |
| < 10 nM | CCOc1ncccc1-c1ccc(C2(C(=O)N[C@@H]3CCN(C)C3)CCN(c3ccc(C(F)(F)F)cc3C#N)CC2)cc1 [Compound 1-1, 1-[2-cyano-4-(trifluoromethyl)phenyl]-4-[4-(2-ethoxypyridin-3-yl)phenyl]-N-[(3R)-1-methylpyrrolidin-3-yl]piperidine-4-carboxamide] |
| < 10 nM | CCOc1ccccc1-c1ccc(C2(NC(=O)[C@H]3CCN(C)C3)CCN(c3ccc(Cl)cc3C#N)CC2)cn1 [Compound 2-28, (3S)—N-[1-(4-chloro-2-cyanophenyl)-4-[6-(2-ethoxyphenyl)pyridin-3-yl]piperidin-4-yl]-1-methylpyrrolidine-3-carboxamide] |
| < 10 nM | COc1sccc1-c1ccc(C2(C(=O)N[C@H]3CCN(C)C3)CCN(c3ccc(C(F)(F)F)cc3C#N)CC2)cn1 [Compound 1-119, 1-[2-cyano-4-(trifluoromethyl)phenyl]-4-[6-(2-methoxythiophen-3-yl)pyridin-3-yl]-N-[(3S)-1-methylpyrrolidin-3-yl]piperidine-4-carboxamide] |
| < 10 nM | CCOc1ccccc1-c1ccc(C2(C(=O)NC3CN(C)C3)CCN(c3ccc(Cl)cc3C#N)CC2)nn1 [Compound 1-135, 1-(4-chloro-2-cyanophenyl)-4-[6-(2-ethoxyphenyl)pyridazin-3-yl]-N-(1-methylazetidin-3-yl)piperidine-4-carboxamide] |
| < 10 nM | Cn1cccc1-c1ccc(C2(C(=O)NCCN3CCC3)CCN(c3ccc(C(F)(F)F)cc3C#N)CC2)cn1 [Compound 1-248, N-[2-(azetidin-1-yl)ethyl]-1-[2-cyano-4-(trifluoromethyl)phenyl]-4-[6-(1-methyl-1H-pyrrol-2-yl)pyridin-3-yl]piperidine-4-carboxamide] |
| < 10 nM | CCOc1ncccc1-c1ccc(C2(C(=O)NCCN)CCN(c3ccc(C(F)(F)F)cc3C#N)CC2)cn1 [Compound 1-13, N-(2-aminoethyl)-1-[2-cyano-4-(trifluoromethyl)phenyl]-4-{2′-ethoxy-[2,3′-bipyridin]-5-yl}piperidine-4-carboxamide] |
| < 10 nM | CNCCC(=O)NC1(c2cnc(-c3ccccc3OC)c(F)c2)CCN(c2ccc(C(F)(F)F)cc2C#N)CC1 [Compound 2-63, N-{1-[2-cyano-4-(trifluoromethyl)phenyl]-4-[5-fluoro-6-(2-methoxyphenyl)pyridin-3-yl]piperidin-4-yl}-3-(methylamino)propanamide] |
| < 10 nM | COc1ccccc1-c1ccc(C2(C(=O)NC[C@H]3CCN3C)CCN(c3ccc(C(F)(F)F)cc3C#N)CC2)cn1 [Compound 1-244, 1-[2-cyano-4-(trifluoromethyl)phenyl]-4-[6-(2-methoxyphenyl)pyridin-3-yl]-N-{[(2R)-1-methylazetidin-2-yl]methyl}piperidine-4-carboxamide] |
| < 10 nM | COc1ccccc1-c1ccc(C2(C(=O)N[C@@H]3CN(C)C[C@@H]3F)CCN(c3ccc(C(F)(F)F)cc3C#N)CC2)cn1 [Compound 1-242, 1-[2-cyano-4-(trifluoromethyl)phenyl]-N-[(3R,4S)-4-fluoro-1-methylpyrrolidin-3-yl]-4-[6-(2-methoxyphenyl)pyridin-3-yl]piperidine-4-carboxamide] |
| < 10 nM | CCOc1ncccc1-c1ncc(C2(C(=O)N[C@@H](C)CNC)CCN(c3ccc(C(F)(F)F)cc3C#N)CC2)cc1F [Compound 1-320, 1-[2-cyano-4-(trifluoromethyl)phenyl]-4-{2′-ethoxy-3-fluoro-[2,3′-bipyridin]-5-yl}-N-[(2S)-1-(methylamino)propan-2-yl]piperidine-4-carboxamide] |
| < 10 nM | CCOc1ncccc1-c1ccc(C2(C(=O)N[C@@H](C)CN(C)C)CCN(c3ccc(C(F)(F)F)cc3C#N)CC2)cn1 [Compound 1-313, 1-[2-cyano-4-(trifluoromethyl)phenyl]-N-[(2S)-1-(dimethylamino)propan-2-yl]-4-{2′-ethoxy-[2,3′-bipyridin]-5-yl}piperidine-4-carboxamide] |
| < 10 nM | CCOc1ccccc1-c1ccc(C2(C(=O)NCCN(C)C)CCN(c3ccc(C(F)(F)F)cc3Cl)CC2)cn1 [Compound 1-228, 1-[2-chloro-4-(trifluoromethyl)phenyl]-N-[2-(dimethylamino)ethyl]-4-[6-(2-ethoxyphenyl)pyridin-3-yl]piperidine-4-carboxamide] |
| < 10 nM | CCOc1ncccc1-c1ccc(C2(C(=O)N[C@H]3CCN(C)C3)CCN(c3ccc(C(C)(F)F)cc3C#N)CC2)cn1 [Compound 1-59, 1-[2-cyano-4-(1,1-difluoroethyl)phenyl]-4-{2′-ethoxy-[2,3′-bipyridin]-5-yl}-N-[(3S)-1-methylpyrrolidin-3-yl]piperidine-4-carboxamide] |
